Reference: patent publication US11160820B2 (Dalian Minzu University, priority 2019, dated 2021)
Read-outs that look alike come from different tables or passages of the source.

Assays:
[1] = test system: mice with LPS/D-GalN-induced acute hepatic failure; conditions: for Aspartate transferase (AST) / Alanine transferase (ALT): serum, 6 hours after modeling
Protocol: (§1) The mice of the blank group and the model group were given the equivalent dose of normal saline by gavage for three consecutive days before the establishment of the model. […] Upon the third day of gavage, the mice of the blank group were given the equivalent dose of normal saline by intraperitoneal injection, and the mice of the model group and the groups with low, medium and high doses were given the LPS and the D-GalN by intraperitoneal injection. After 6 hours of modeling, blood and liver tissues were taken. Whole blood was centrifuged (4000 rmp×10 min), and then the supernatant was taken. The liver tissue was washed with normal saline, one-fourth of the large liver lobe was stored in a formalin solution, and the rest of the liver was stored in a refrigerator of −80° C.
Plasma was taken, and determined with alanine transaminase (GPT) and aspartate transferase (GOT) kits. The experiment followed the instructions of the kits available from Nanjing Jiancheng Bioengineering Institute.
(§2) All experimental data were analyzed by a Graphpad Prism 7.0 software. Statistical analysis between the two groups was conducted by a t test. Variance analysis was conducted by Ordinary one-way ANOVA. A Multiple Comparison method was used for conducting pairwise comparison among multiple groups. When the P value was <0.05, it was considered that there was statistical difference among the data of each group.

[2] = test system: mice with LPS/D-GalN-induced acute hepatic failure
Protocol: as §1
The in vitro liver tissue was spread on a white paperboard, observed for the appearance of the liver tissue, and photographed.

[3] = test system: mice with LPS/D-GalN-induced acute hepatic failure; conditions: for Catalase (CAT) / Glutathione (GSH) / Malondialdehyde (MDA) / Superoxide dismutase (SOD): liver tissue homogenate
Protocol: as §1
The liver tissue homogenate was detected with glutathione (GSH), superoxide dismutase (SOD), malondialdehyde (MDA) and catalase (CAT) kits. The experiment followed the instructions of kits available from Nanjing Jiancheng Bioengineering Institute.
as §2

[4] = test system: mice with LPS/D-GalN-induced acute hepatic failure; remark: listed apart in the source
Protocol: as §1
The liver tissue was soaked in a 10% formalin solution, washed under running water, dehydrated with ethanol solutions of low to high concentrations, xylene solution, embedded with paraffin, sectioned, stained with H&E, and observed under a microscope for the pathological morphology of the liver tissue.

[5] = test system: mice with LPS/D-GalN-induced acute hepatic failure; conditions: treatment group administrated with the AFG
Protocol: as §1

[6] = test system: mice with acute hepatitis/hepatic failure caused by LPS/D-GalN; conditions: through a TLR4 signaling pathway; International Immunopharmacology, 2018, 61:266-276; cited from earlier work
[7] = group with the high dose of the AFG, P<0.01
[8] = AFG 25 mg/kg by gavage for 3 days before LPS/D-GalN
[9] = AFG 50 mg/kg by gavage for 3 days before LPS/D-GalN
[10] = AFG 100 mg/kg by gavage for 3 days before LPS/D-GalN
[11] = groups with medium and high doses of the AFG, P<0.05

N=C(N)NCCC[C@H](NCC(=O)[C@@H](O)[C@H](O[C@H]1O[C@H](CO)[C@@H](O)[C@H](O)[C@H]1O)[C@H](O)CO)C(=O)O [AFG, argininyl fructosy glucose]
improvement of acute hepatic failure caused by the combination of LPS and D-GalN ([1]; AFG in the range from 50 mg/kg to 100 mg/kg, overall conclusion): can significantly improve the acute hepatic failure | level of ALT in the serum compared with the model group [1, 7]: significantly decreased | level of AST in the serum compared with the model group [1, 7]: significantly decreased | Aspartate transferase (AST) ([1]; AFG 25 mg/kg by gavage for 3 days before LPS 40 μg/kg + D-GalN 700 mg/kg i.p.): 260.52 ± 5.58 | Alanine transferase (ALT) [1, 8]: 187.45 ± 3.48 | Alanine transferase (ALT) [1, 9]: 116.13 ± 3.37 | Aspartate transferase (AST) [1, 9]: 146.43 ± 0.93 | Alanine transferase (ALT) [1, 10]: 71.90 ± 5.97 | Aspartate transferase (AST) [1, 10]: 80.48 ± 5.09 | appearance of the liver, protection effect ([2]; group protected with the high dose): the protection effect was obvious | appearance of the liver ([2]; with the increase of the protection dose): gradually tended to be of a normal state | level of CAT compared with the model group [3, 11]: increased significantly | level of MDA compared with the model group [3, 11]: increased significantly | level of SOD compared with the model group [3, 11]: increased significantly | Catalase (CAT) [3, 8]: 34.01 ± 2.75 | Glutathione (GSH) [3, 8]: 51.91 ± 3.29 | Malondialdehyde (MDA) [3, 8]: 133.37 ± 5.38 | Superoxide dismutase (SOD) [3, 8]: 11.48 ± 1.77 | Catalase (CAT) [3, 9]: 51.66 ± 6.19 | Glutathione (GSH) [3, 9]: 67.94 ± 3.58 | Malondialdehyde (MDA) [3, 9]: 104.00 ± 3.13 | Superoxide dismutase (SOD) [3, 9]: 20.98 ± 3.72 | Catalase (CAT) [3, 10]: 61.44 ± 8.96 | Glutathione (GSH) [3, 10]: 136.00 ± 6.90 | Malondialdehyde (MDA) [3, 10]: 94.44 ± 6.87 | Superoxide dismutase (SOD) [3, 10]: 26.54 ± 2.93 | H&E stained liver sections compared with the model group ([4]; group with the high dose of the AFG): the cells had relatively complete structures | H&E stained liver sections compared with the model group ([4]; group with the medium dose of the AFG): cellular necrosis was significantly improved | number of apoptotic cells (TUNEL) compared with the model group [5]: significantly reduced

CC(C)=CCC[C@](C)(O[C@@H]1O[C@H](CO)[C@@H](O)[C@H](O)[C@H]1O)[C@H]1CC[C@]2(C)[C@@H]1[C@H](O)C[C@@H]1[C@@]3(C)CC[C@H](O)C(C)(C)[C@@H]3[C@@H](O[C@@H]3O[C@H](CO)[C@@H](O)[C@H](O)[C@H]3O)C[C@]12C [ginsenoside Rg1]
protective role on mice with acute hepatitis/hepatic failure caused by LPS/D-GalN [6]: plays a protective role
